Measurements: ChEMBL document CHEMBL6109096, “Synthesis, anti-allergic rhinitis evaluation and mechanism investigation of novel 1,2,4-triazole-enamides as CB1 R antagonist” (Eur J Med Chem, 2025)
Activity calls are given as the source filed them. The calls are words filed in the database; no cut-off is given here.

Tests used:
[1] = system: RAW264.7; assay: Cytotoxicity against mouse RAW264.7 cells assessed as reduction in cell viability at 10 uM incubated for 24 hrs by CCK-8 assay; assay type: toxicity, cell-based; settings: raw264.7, 24 h
[2] = system: Mus musculus; assay: Anti-inflammatory activity in ovalbumin-induced allergic rhinitis male Balb/c mouse model assessed as reduction in IL-4 expression in nasal lavage fluid at 50 to 150 mg/kg, po administered via gavage for 7 days by ELISA; assay type: functional, organism-based; settings: dose 50-150 mg/kg, time 7.0 day
[3] = system: Mus musculus; assay: Anti-inflammatory activity in ovalbumin-induced allergic rhinitis male Balb/c mouse assessed as reduction in number of mast cells on nasal lavage fluid at 50 to 150 mg/kg, po administered via gavage for 7 days by giemsa staining based analysis; assay type: functional, organism-based; settings: dose 50-150 mg/kg, time 7.0 day
[4] = system: RAW264.7; assay: Inhibition of IL-1beta (unknown origin) in mouse RAW264.7 relative to control; assay type: cell-based; settings: dose or concentration not given here
[5] = system: RAW264.7; assay: Downregulation of P-IKBalpha protein expression in LPS-induced mouse RAW264.7 cells at 5 to 20 uM by Western blotting analysis; assay type: functional, cell-based; settings: dose 5-20 µM
[6] = system: RAW264.7; assay: Downregulation of p-P38 protein expression in LPS-induced mouse RAW264.7 cells at 5 to 20 uM by Western blotting analysis; assay type: functional, cell-based; settings: dose 5-20 µM
[7] = system: Mus musculus; assay: Anti-inflammatory activity in ovalbumin-induced allergic rhinitis male Balb/c mouse model assessed as reduction in sneezing administered orally via gavage for 7 days; assay type: functional, organism-based; settings: dose 50-150 mg/kg, route po, time 7.0 day
[8] = system: Mus musculus; assay: Anti-inflammatory activity in ovalbumin-induced allergic rhinitis male Balb/c mouse assessed as reduction in number of mast cells on nasal lavage fluid at 150 mg/kg, po administered via gavage for 7 days by giemsa staining based analysis; assay type: functional, organism-based; settings: time 7.0 day
[9] = system: Mus musculus; assay: Anti-inflammatory activity in ovalbumin-induced allergic rhinitis male Balb/c mouse assessed as reduction in number of eosinophils on nasal lavage fluid at 150 mg/kg, po administered via gavage for 7 days by giemsa staining based analysis; assay type: functional, organism-based; settings: time 7.0 day
[10] = system: RAW264.7; assay: Downregulation of P-P65 protein expression in LPS-induced mouse RAW264.7 cells at 5 to 20 uM by Western blotting analysis; assay type: functional, cell-based; settings: dose 5-20 µM
[11] = system: RAW264.7; assay: Inhibition of IL-6 (unknown origin) in mouse RAW264.7 relative to control; assay type: cell-based; settings: dose or concentration not given here
[12] = system: Mus musculus; assay: Anti-inflammatory activity in ovalbumin-induced allergic rhinitis male Balb/c mouse model assessed as reduction in IgE expression at 50 mg/kg, po administered via gavage for 7 days (reference value: 0.268 +/- 0.045); assay type: functional; settings: time 7 day
[13] = system: Mus musculus; assay: Anti-inflammatory activity in ovalbumin-induced allergic rhinitis male Balb/c mouse model assessed as decrease in p-p38 intranuclear expression in nasal mucosal at 50 to 150 mg/kg, po administered via gavage for 7 days by immunofluorescence staining based analysis; assay type: functional, organism-based; settings: dose 50-150 mg/kg, time 7.0 day
[14] = system: Mus musculus; assay: Anti-inflammatory activity in ovalbumin-induced allergic rhinitis male Balb/c mouse assessed as reduction in number of eosinophils on nasal lavage fluid at 50 to 150 mg/kg, po administered via gavage for 7 days by giemsa staining based analysis; assay type: functional, organism-based; settings: dose 50-150 mg/kg, time 7.0 day
[15] = system: RAW264.7; assay: Anti-inflammatory activity in LPS-induced mouse RAW264.7 cells assessed as reduction in IL-1beta mRNA expression incubated for 24 hrs by qRT-PCR analysis; assay type: functional, cell-based; settings: dose 5-20 µM
[16] = system: RAW264.7; assay: Downregulation of p-JNK protein expression in LPS-induced mouse RAW264.7 cells at 5 to 20 uM by Western blotting analysis; assay type: functional, cell-based; settings: dose 5-20 µM
[17] = system: Mus musculus; assay: Anti-inflammatory activity in ovalbumin-induced allergic rhinitis male Balb/c mouse model assessed as reduction in serum histamine expression at 50 to 150 mg/kg, po administered via gavage for 7 days by ELISA; assay type: functional, organism-based; settings: dose 50-150 mg/kg, time 7.0 day
[18] = system: Mus musculus; assay: Anti-inflammatory activity in ovalbumin-induced allergic rhinitis male Balb/c mouse model assessed as reduction in serum histamine expression at 150 mg/kg, po administered via gavage for 7 days by ELISA; assay type: functional, organism-based; settings: time 7.0 day
[19] = system: RAW264.7; assay: Anti-inflammatory activity in LPS-induced mouse RAW264.7 cells assessed as reduction in TNF-alpha mRNA expression incubated for 24 hrs by qRT-PCR analysis; assay type: functional, cell-based; settings: dose 5-20 µM
[20] = system: RAW264.7; assay: Downregulation of p-ERK protein expression in LPS-induced mouse RAW264.7 cells at 5 to 20 uM by Western blotting analysis; assay type: functional, cell-based; settings: dose 5-20 µM
[21] = system: RAW264.7; assay: Downregulation of p-P38 intranuclear expression in mouse RAW264.7 cells at 5 to 20 uM by immunofluorescence staining based analysis; assay type: functional, cell-based; settings: dose 5-20 µM
[22] = system: Mus musculus; assay: Anti-inflammatory activity in ovalbumin-induced allergic rhinitis male Balb/c mouse model assessed as reduction in IgE expression at 100 mg/kg, po administered via gavage for 7 days (reference value: 0.268 +/- 0.045); assay type: functional; settings: time 7 day
[23] = system: Mus musculus; assay: Anti-inflammatory activity in ovalbumin-induced allergic rhinitis male Balb/c mouse assessed as reduction in inflammation of nasal mucosal tissue at 50 to 150 mg/kg, po administered via gavage for 7 days by H and E staining based analysis; assay type: functional, organism-based; settings: dose 50-150 mg/kg, time 7.0 day
[24] = system: Mus musculus; assay: Anti-inflammatory activity in ovalbumin-induced allergic rhinitis male Balb/c mouse assessed as reduction in number of cells on nasal lavage fluid at 50 to 150 mg/kg, po administered via gavage for 7 days by giemsa staining based analysis; assay type: functional, organism-based; settings: dose 50-150 mg/kg, time 7.0 day
[25] = system: RAW264.7; assay: Downregulation of p-P38 expression in mouse RAW264.7 cells at 5 to 20 uM by immunofluorescence staining based analysis; assay type: functional, cell-based; settings: dose 5-20 µM
[26] = system: Mus musculus; assay: Anti-inflammatory activity in ovalbumin-induced allergic rhinitis male Balb/c mouse model assessed as reduction in IgE expression at 150 mg/kg, po administered via gavage for 7 days (reference value: 0.268 +/- 0.045); assay type: functional; settings: time 7 day
[27] = system: RAW264.7; assay: Downregulation of CB1 R expression in LPS-induced mouse RAW264.7 cells at 5 to 20 uM by immunofluorescence staining based analysis; assay type: functional, cell-based; settings: dose 5-20 µM
[28] = system: Mus musculus; assay: Anti-inflammatory activity in ovalbumin-induced allergic rhinitis male Balb/c mouse assessed as reduction in number of goblet cells in nasal mucosal tissues at 50 to 150 mg/kg, po administered via gavage for 7 days by PAS staining based analysis; assay type: functional, organism-based; settings: dose 50-150 mg/kg, time 7.0 day
[29] = system: RAW264.7; assay: Anti-inflammatory activity in LPS-induced mouse RAW264.7 cells assessed as reduction in IL-6 mRNA expression incubated for 24 hrs by qRT-PCR analysis; assay type: functional, cell-based; settings: dose 5-20 µM
[30] = system: Mus musculus; assay: Anti-inflammatory activity in ovalbumin-induced allergic rhinitis male Balb/c mouse model assessed as reduction in nose scratching administered orally via gavage for 7 days; assay type: functional, organism-based; settings: dose 50-150 mg/kg, route po, time 7.0 day

Structure (SMILES): CN(/C=C\c1ccccc1)C(=O)c1nc(C2CCCCC2)n(-c2ccccc2)n1
- Activity [1]: Non-toxic
- Activity [2]: Active
- Activity [3]: Active
- inhibition [4]: 77%
- Activity [5]: Active
- Activity [6]: Active
- Activity [7]: Dose-dependent-effect
- Activity [8]: Active; Most Effective Group Compared To Other Dosing Group
- Activity [9]: Active; Most Effective Group Compared To Other Dosing Group
- Activity [10]: Active
- inhibition [11]: 88%
- Activity [12]: 0.192
- Activity [13]: Active
- Activity [14]: Active
- Activity [15]: Dose-dependent-effect
- Activity [16]: Active
- Activity [17]: Active
- Activity [18]: Active; More Effective Than Other Dosing Group
- Activity [19]: Dose-dependent-effect
- Activity [20]: Active
- Activity [21]: Active
- Activity [22]: 0.212
- Activity [23]: Active
- Activity [24]: Active
- Activity [25]: Active
- Activity [26]: 0.182
- Activity [27]: Active
- Activity [28]: Active
- Activity [29]: Dose-dependent-effect
- Activity [30]: Dose-dependent-effect
